This is an account of results in ChEMBL document CHEMBL1143235, “1-Hydroxy-2-pyridinone-based MMP inhibitors: synthesis and biological evaluation for the treatment of ischemic stroke” (Bioorg Med Chem Lett, 2008).

The structures appear in SMILES notation. Calls of active or inactive are those of the source. Where only a bound is given, the exact number is not on record here.

In data set [1] the target is T1, Matrix metalloproteinase-9 (Homo sapiens, UniProt P14780). The data set is described as follows: Inhibition of MMP9.
T1 sequence (P14780 whole entry): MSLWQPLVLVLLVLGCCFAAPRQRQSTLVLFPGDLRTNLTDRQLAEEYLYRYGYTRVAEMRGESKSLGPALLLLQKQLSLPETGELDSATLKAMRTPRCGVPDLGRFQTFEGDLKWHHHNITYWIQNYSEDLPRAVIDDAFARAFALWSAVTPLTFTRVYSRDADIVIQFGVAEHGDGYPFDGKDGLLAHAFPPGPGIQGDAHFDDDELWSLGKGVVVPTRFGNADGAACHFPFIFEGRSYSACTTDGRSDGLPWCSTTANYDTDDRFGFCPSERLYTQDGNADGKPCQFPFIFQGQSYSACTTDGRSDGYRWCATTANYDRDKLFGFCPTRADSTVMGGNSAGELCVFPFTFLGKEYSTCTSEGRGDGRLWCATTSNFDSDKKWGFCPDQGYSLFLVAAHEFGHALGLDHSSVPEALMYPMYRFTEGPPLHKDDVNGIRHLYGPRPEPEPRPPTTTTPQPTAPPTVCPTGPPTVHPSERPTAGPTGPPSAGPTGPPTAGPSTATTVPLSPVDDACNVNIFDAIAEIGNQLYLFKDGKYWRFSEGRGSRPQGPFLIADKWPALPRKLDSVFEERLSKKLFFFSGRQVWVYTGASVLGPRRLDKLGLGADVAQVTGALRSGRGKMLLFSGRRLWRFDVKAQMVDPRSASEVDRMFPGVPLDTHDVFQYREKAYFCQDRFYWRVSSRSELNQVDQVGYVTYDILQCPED
The target in data set [2] is T2, 72 kDa type IV collagenase (Homo sapiens, UniProt P08253). The data set is described as follows: Inhibition of MMP2.
Target sequence in this assay (P08253 whole entry): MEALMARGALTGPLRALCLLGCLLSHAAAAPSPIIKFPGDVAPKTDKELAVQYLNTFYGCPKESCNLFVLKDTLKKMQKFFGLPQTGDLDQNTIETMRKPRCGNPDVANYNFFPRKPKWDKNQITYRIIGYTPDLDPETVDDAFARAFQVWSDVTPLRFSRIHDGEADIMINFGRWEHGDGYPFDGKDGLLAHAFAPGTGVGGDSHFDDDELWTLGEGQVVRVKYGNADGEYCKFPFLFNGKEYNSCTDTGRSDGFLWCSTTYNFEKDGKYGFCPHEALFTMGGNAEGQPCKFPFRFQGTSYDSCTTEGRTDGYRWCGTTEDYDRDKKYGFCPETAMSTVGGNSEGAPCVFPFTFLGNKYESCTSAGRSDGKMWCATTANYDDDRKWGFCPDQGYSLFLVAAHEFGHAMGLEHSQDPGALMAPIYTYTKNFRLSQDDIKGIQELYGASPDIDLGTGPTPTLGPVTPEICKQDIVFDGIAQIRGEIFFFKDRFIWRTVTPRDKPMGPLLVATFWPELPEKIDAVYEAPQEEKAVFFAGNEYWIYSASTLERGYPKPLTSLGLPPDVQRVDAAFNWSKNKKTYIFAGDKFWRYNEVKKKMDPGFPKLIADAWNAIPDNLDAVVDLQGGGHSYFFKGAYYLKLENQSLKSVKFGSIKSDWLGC
Data set [3] deals with T3, Stromelysin-1 (Homo sapiens, UniProt P08254). The data set is described as follows: Inhibition of MMP3 at 100 uM.
Target sequence in this assay (P08254 100-477 limits assumed): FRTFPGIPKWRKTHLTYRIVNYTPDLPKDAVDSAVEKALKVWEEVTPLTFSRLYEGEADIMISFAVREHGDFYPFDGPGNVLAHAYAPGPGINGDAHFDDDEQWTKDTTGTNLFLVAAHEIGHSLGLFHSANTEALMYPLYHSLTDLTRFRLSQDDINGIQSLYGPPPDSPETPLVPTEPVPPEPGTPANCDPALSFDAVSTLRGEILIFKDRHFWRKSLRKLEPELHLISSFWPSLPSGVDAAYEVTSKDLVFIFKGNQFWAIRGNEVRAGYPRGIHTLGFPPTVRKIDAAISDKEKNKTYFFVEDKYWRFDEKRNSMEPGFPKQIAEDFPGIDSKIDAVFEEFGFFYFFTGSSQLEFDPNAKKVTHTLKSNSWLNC
Data set [4] has as its target T2, 72 kDa type IV collagenase. The note with it: 100 uM.
Target sequence in this assay (P08253 110-660 limits assumed): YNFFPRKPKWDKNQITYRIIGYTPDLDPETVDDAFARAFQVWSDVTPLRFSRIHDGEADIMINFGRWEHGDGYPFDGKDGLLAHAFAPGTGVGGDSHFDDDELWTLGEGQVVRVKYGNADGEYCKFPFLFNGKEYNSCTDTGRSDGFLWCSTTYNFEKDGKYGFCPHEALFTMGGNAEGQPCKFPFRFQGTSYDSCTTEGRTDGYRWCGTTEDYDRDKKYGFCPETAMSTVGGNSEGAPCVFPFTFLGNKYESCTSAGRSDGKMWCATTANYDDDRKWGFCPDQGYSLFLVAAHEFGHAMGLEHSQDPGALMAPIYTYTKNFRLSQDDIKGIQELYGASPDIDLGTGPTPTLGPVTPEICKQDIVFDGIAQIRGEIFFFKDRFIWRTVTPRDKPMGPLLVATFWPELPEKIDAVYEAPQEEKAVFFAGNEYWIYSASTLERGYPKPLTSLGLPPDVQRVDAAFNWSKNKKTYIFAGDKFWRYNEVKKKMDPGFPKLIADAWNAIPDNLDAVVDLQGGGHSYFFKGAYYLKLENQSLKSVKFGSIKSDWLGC
Description: Inhibition of MMP2 at 100 uM
Data set [5] has as its target T1, Matrix metalloproteinase-9. Briefly: Inhibition of MMP9 at 100 uM.
The next data set concerns the target T4, Interstitial collagenase (Homo sapiens, UniProt P03956).
T4 sequence (P03956 whole entry): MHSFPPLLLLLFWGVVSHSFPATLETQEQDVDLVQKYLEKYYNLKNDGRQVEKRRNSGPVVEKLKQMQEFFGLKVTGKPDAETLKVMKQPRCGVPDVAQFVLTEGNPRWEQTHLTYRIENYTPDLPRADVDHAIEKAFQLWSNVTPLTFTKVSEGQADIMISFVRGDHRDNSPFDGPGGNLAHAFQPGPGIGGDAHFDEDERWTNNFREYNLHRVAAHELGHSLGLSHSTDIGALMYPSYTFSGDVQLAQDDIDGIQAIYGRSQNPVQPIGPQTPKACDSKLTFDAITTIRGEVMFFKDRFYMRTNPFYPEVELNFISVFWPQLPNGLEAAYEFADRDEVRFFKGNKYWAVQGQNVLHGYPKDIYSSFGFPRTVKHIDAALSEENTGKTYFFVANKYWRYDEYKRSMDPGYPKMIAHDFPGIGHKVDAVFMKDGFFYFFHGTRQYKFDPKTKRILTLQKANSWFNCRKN
Briefly: Inhibition of MMP1.

The target in data set [6] is T3, Stromelysin-1. The data set is described as follows: Inhibition of MMP3.
Target sequence in this assay (P08254 whole entry): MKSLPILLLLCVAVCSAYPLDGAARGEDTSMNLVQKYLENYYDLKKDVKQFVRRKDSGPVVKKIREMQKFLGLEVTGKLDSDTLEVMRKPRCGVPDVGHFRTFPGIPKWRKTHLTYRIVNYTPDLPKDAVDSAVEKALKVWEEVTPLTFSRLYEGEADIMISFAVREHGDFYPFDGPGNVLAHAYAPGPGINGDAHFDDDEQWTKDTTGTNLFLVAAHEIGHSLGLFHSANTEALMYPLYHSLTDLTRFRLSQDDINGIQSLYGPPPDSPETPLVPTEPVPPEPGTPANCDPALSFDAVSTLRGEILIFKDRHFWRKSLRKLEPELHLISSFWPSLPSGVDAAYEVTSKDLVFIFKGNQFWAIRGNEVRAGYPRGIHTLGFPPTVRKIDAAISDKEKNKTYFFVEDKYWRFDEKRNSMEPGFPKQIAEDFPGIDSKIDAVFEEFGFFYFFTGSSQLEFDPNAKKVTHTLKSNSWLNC
Another data set concerns the target Collagenase 3 (Homo sapiens, UniProt P45452). The data set is described as follows: Inhibition of MMP13.
Data set [7] is described as follows: Volume of distribution at steady state in rat at 2 mg/kg, iv. It counts as ADME, organism-based. On the set-up: dose 2 mg/kg, route intravenous. The settings on record: in vivo, read-out: Vdss.
Data set [8] can be described thus: Apparent elimination half life in rat at 2 mg/kg, iv. Further details: dose 2 mg/kg, route intravenous. The settings on record: in vivo. Format: ADME, organism-based.
Data set [9] can be described thus: Drug level in rat at 2 mg/kg, iv. It counts as ADME, organism-based. On the set-up: dose 2 mg/kg, route intravenous. The settings on record: in vivo.
Data set [10] is described as follows: Plasma concentration in mouse at 10 mg/kg, po after 1 hr.
Another data set concerns Mus musculus. The data set is described as follows: Reduction of focal ischemia-induced brain edema in C57 Black/6 mouse at 6 mg/kg, iv after 2 hrs by wet/dry method. It counts as functional, organism-based. On the set-up: dose 6 mg/kg.
Another data set has as its system Rattus norvegicus. The data set is described as follows: AUC in rat at 2 mg/kg, iv. The note with it: in vivo. It counts as ADME, organism-based, Plasma. Further details: dose 2 mg/kg, route intravenous.

As to `CN(c1cccn(O)c1=O)S(=O)(=O)c1ccc(Oc2ccc(OC(F)(F)F)cc2)cc1`, in data set [1], the IC50 – broadly, the concentration that inhibits the measured activity by half – was 1.8 nM.
For `CC(C)N(c1cccn(O)c1=O)S(=O)(=O)c1ccc(Oc2ccccc2)cc1`, the IC50 in [1] was determined as 57.5 nM; in data set [2], 41 nM.
In the case of `Cc1cc(=O)c(O)c(C(=O)NCc2ccc(-c3ccccc3)cc2)o1`, the inhibition (against Stromelysin-1 [3]; in data set [4]; in data set [5]) was 34% in each case.
In the case of `O=c1c(N(CCN2CCOCC2)S(=O)(=O)c2ccc(Oc3ccc(Cl)cc3)cc2)cccn1O`, the results for the IC50 against Interstitial collagenase, at Stromelysin-1 [6] and against Collagenase 3 were more than 1000 nM, 62.9 nM and 4 nM, respectively.
As for `Cc1ccc(Oc2ccc(S(=O)(=O)N(C)c3cccn(O)c3=O)cc2)cc1`, the IC50 in data set [1] was 4.4 nM; in data set [2], 6.1 nM.
For `CN(c1cccn(O)c1=O)S(=O)(=O)c1ccc(Oc2ccc(Cl)cc2)cc1`, the Vd in [7] was found to be 1.75 L/kg. The half-life (in general, the time needed for the level to fall by half in the phase considered) in data set [8] is 47 h. Moreover, the IC50 at Interstitial collagenase is more than 1000 nM; in [1] it was 2.4 nM; in data set [2], 5 nM; on Stromelysin-1 [6], 56.5 nM; at Collagenase 3, 2.5 nM. The molecule further yielded a C0 in [9] of 8.4 µM. Moreover, the concentration at 1 h in data set [10] was 34 µM. For the same molecule, the outcome with Mus musculus was Active. In addition, the AUC – broadly, concentration integrated over time – in the data set on Rattus norvegicus was found to be 179 µg·h/mL.
Regarding `CN(c1cccn(O)c1=O)S(=O)(=O)c1ccc(Oc2ccccc2)cc1`, the results for the IC50 in data set [1] and in [2] were 5 nM and 8.3 nM, respectively.
On the same counts, the results for `CCN(c1cccn(O)c1=O)S(=O)(=O)c1ccc(Oc2ccccc2)cc1` are 3.6 nM and 6.5 nM.
As to `COc1ccc(Oc2ccc(S(=O)(=O)N(C)c3cccn(O)c3=O)cc2)cc1`, the IC50 at Interstitial collagenase is more than 1000 nM; against Stromelysin-1 [6] it was 79.1 nM; on Collagenase 3 it was 6.8 nM.
